According to ChEMBL document CHEMBL1201862, “PubChem BioAssay data set” (2004):
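A five-concentration, 48-hour dose response in 96-well plates underlies each endpoint, interpolated linearly between surrounding concentrations. GI50 = concentration required for 50% inhibition of growth.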 Activity calls are given as the source filed them. No stated cut-off is given here; in the data, active = GI50 up to about 1.1 µM and inactive = higher.

Columns and labels:
Test in all cases: growth of human tumour cells (NCI), 48 h
[1] = system: 786-0
[2] = system: COLO 205
[3] = system: EKVX
[4] = system: HL-60
[5] = system: IGROV-1
[6] = system: KM12
[7] = system: LOX IMVI
[8] = system: MDA-MB-231
[9] = system: MDA-MB-435
[10] = system: MOLT-4
[11] = system: Malme-3M
[12] = system: NCI/ADR-RES
[13] = system: RPMI-8226
[14] = system: SF-268
[15] = system: SK-MEL-28
[16] = system: SNB-19
[17] = system: SNB-75
[18] = system: T47D
[19] = system: U-251
[20] = system: A498

| SMILES | GI50 [1] | GI50 [2] | GI50 [3] | GI50 [4] | GI50 [5] | GI50 [6] | GI50 [7] | GI50 [8] | GI50 [9] | GI50 [10] | GI50 [11] | GI50 [12] | GI50 [13] | GI50 [14] | GI50 [15] | GI50 [16] | GI50 [17] | GI50 [18] | GI50 [19] | GI50 [20] |
| --- | --- | --- | --- | --- | --- | --- | --- | --- | --- | --- | --- | --- | --- | --- | --- | --- | --- | --- | --- | --- |
| N/C(CSCCSC/C(N)=N/O)=N\O | > 100 µM (inactive) | > 100 µM (inactive) | > 100 µM (inactive) | > 100 µM (inactive) | > 100 µM (inactive) | > 100 µM (inactive) | > 100 µM (inactive) | > 100 µM (inactive) | > 100 µM (inactive) | > 100 µM (inactive) | > 100 µM (inactive) | > 100 µM (inactive) | > 100 µM (inactive) | > 100 µM (inactive) | > 100 µM (inactive) | > 100 µM (inactive) | > 100 µM (inactive) | > 100 µM (inactive) | > 100 µM (inactive) |  |
| O=C(O)Cc1cccc2c1OC(c1ccccc1)C(C(=O)c1ccccc1)C2=O (configuration not stated) | 52.5 µM (inactive) | 67.6 µM (inactive) | 36.2 µM (inactive) | 26.5 µM (inactive) | 38.7 µM (inactive) | 25.6 µM (inactive) | 83.8 µM (inactive) | 32.7 µM (inactive) | 35 µM (inactive) | 43.1 µM (inactive) | 63.4 µM (inactive) | > 100 µM (inactive) | 33.6 µM (inactive) | 44 µM (inactive) | 65.3 µM (inactive) | 45.9 µM (inactive) | 12.2 µM (inactive) | 10.1 µM (inactive) | 40.9 µM (inactive) |  |
| Cc1cccc(Nc2nn3c(=O)c4c5c(sc4nc3s2)CCCC5)c1 | 45.9 µM (inactive) | 3.69 µM (inactive) |  | 23.4 µM (inactive) | 43.4 µM (inactive) | 16.1 µM (inactive) | 3.33 µM (inactive) | 8.09 µM (inactive) | 7.41 µM (inactive) | 48.4 µM (inactive) | 3.15 µM (inactive) | 11.1 µM (inactive) |  | 3.36 µM (inactive) | > 100 µM (inactive) | > 100 µM (inactive) | 23.2 µM (inactive) | 9.82 µM (inactive) | 46.2 µM (inactive) |  |
| CCCCCCCCCCCCCCCCCC(=O)OCC(COC(=O)CCCN)OC(=O)CCCN (configuration not stated) | 17.3 µM (inactive) | 16.5 µM (inactive) | 20.8 µM (inactive) | 54.2 µM (inactive) | 2.91 µM (inactive) | 15.5 µM (inactive) | 18.5 µM (inactive) | 15 µM (inactive) | 17.2 µM (inactive) | 24.8 µM (inactive) | 23.2 µM (inactive) | 19.7 µM (inactive) |  | 23.1 µM (inactive) | 19.9 µM (inactive) | 21.8 µM (inactive) | > 100 µM (inactive) | 17.4 µM (inactive) | 20.6 µM (inactive) |  |
| Cc1cc2nc3n(c2cc1C)C(c1c(F)cccc1F)SC3 (configuration not stated) | 19.3 µM (inactive) | 20.7 µM (inactive) | 34.8 µM (inactive) |  | > 10 µM (inactive) | > 10 µM (inactive) | 15.7 µM (inactive) | 17.9 µM (inactive) | 14.2 µM (inactive) | 13.7 µM (inactive) | 20.8 µM (inactive) | 16.8 µM (inactive) | 25.4 µM (inactive) | 27.6 µM (inactive) | 19.1 µM (inactive) | 18.3 µM (inactive) | 11.6 µM (inactive) | 57.8 µM (inactive) | 16.1 µM (inactive) |  |
| C=CCN1C(=O)/C(=C/c2ccc(OC)cc2)NC1=S | > 100 µM (inactive) | > 100 µM (inactive) | 18.3 µM (inactive) | 0.0355 µM (active) | > 100 µM (inactive) | 97.7 µM (inactive) | 56.1 µM (inactive) | > 100 µM (inactive) | 57.3 µM (inactive) | 4.59 µM (inactive) |  | > 100 µM (inactive) | 35.2 µM (inactive) | > 100 µM (inactive) | > 100 µM (inactive) | > 100 µM (inactive) | > 100 µM (inactive) | 42.2 µM (inactive) | 82.2 µM (inactive) | 60.4 µM (inactive) |
| O=C(CSCC(=O)N/N=C/c1cc(I)cc(I)c1O)N/N=C/c1cc(I)cc(I)c1O | 5.83 µM (inactive) | 23.1 µM (inactive) | 16 µM (inactive) | 6.18 µM (inactive) | 8.28 µM (inactive) | 25.8 µM (inactive) |  | 7.18 µM (inactive) | 25.4 µM (inactive) | 5.19 µM (inactive) | 18.1 µM (inactive) | 17.2 µM (inactive) | 26.5 µM (inactive) | 4.34 µM (inactive) | 18.9 µM (inactive) | 10.5 µM (inactive) | 5.65 µM (inactive) | 34.3 µM (inactive) | 6.61 µM (inactive) | 9.04 µM (inactive) |
| CC1C2C=CC1C(c1c3ccc(=O)c(O)c-3oc3c(O)c(O)ccc13)C2C(=O)O (configuration not stated) | 61 µM (inactive) | > 100 µM (inactive) | 50.9 µM (inactive) | 44.3 µM (inactive) | > 100 µM (inactive) | 50.2 µM (inactive) | 20.9 µM (inactive) | > 100 µM (inactive) | 19.6 µM (inactive) | 21.6 µM (inactive) |  | > 100 µM (inactive) | 23.2 µM (inactive) | > 100 µM (inactive) | > 100 µM (inactive) | > 100 µM (inactive) |  | > 100 µM (inactive) | 36.5 µM (inactive) | > 100 µM (inactive) |
| C=C(C)C(=O)O[C@H]1C[C@@]23O[C@@H]2CCC(=C[C@H]2OC(=O)C(=C)[C@H]12)COC3O (some centres not stated) | 35.3 µM (inactive) | 21.2 µM (inactive) | 49.2 µM (inactive) | 14.7 µM (inactive) | > 100 µM (inactive) | > 100 µM (inactive) | 14.9 µM (inactive) | > 100 µM (inactive) | 44.3 µM (inactive) | 28.7 µM (inactive) |  | 44.6 µM (inactive) | 23.4 µM (inactive) | > 100 µM (inactive) |  | > 100 µM (inactive) | > 100 µM (inactive) | 35.4 µM (inactive) | > 100 µM (inactive) | > 100 µM (inactive) |
| O=C1NC(=S)NC(=O)C1=C/C=C/c1ccc([N+](=O)[O-])cc1 | 14.2 µM (inactive) | 13.2 µM (inactive) | 17.9 µM (inactive) | 3.71 µM (inactive) | 12.2 µM (inactive) | 38 µM (inactive) | 6.76 µM (inactive) | 18.2 µM (inactive) | 10.4 µM (inactive) | 3.04 µM (inactive) | 9.66 µM (inactive) | 13.1 µM (inactive) | 7.24 µM (inactive) | 15.2 µM (inactive) | 3.03 µM (inactive) | 17.1 µM (inactive) | 19.2 µM (inactive) | 24.9 µM (inactive) | 4 µM (inactive) |  |
| O=CNNC(=O)Nc1ccc(Cl)cc1 | > 100 µM (inactive) | > 100 µM (inactive) | > 100 µM (inactive) | > 100 µM (inactive) | > 100 µM (inactive) | > 100 µM (inactive) |  | > 100 µM (inactive) | > 100 µM (inactive) | > 100 µM (inactive) | > 100 µM (inactive) | > 100 µM (inactive) | > 100 µM (inactive) | > 100 µM (inactive) | > 100 µM (inactive) | 95.7 µM (inactive) | > 100 µM (inactive) | > 100 µM (inactive) | > 100 µM (inactive) | 29.6 µM (inactive) |
| COc1ccc(/C=C2\CCC(C)/C(=C\c3ccc(OC)c(OC)c3)C2=O)cc1OC (configuration not stated) | 5.11 µM (inactive) | 8.39 µM (inactive) | 2.13 µM (inactive) | 1.73 µM (inactive) | 2.88 µM (inactive) | 2.55 µM (inactive) | 4.33 µM (inactive) | 7.8 µM (inactive) | 3.76 µM (inactive) | 3.23 µM (inactive) | 4.58 µM (inactive) | 3.5 µM (inactive) | 2.51 µM (inactive) | 6.89 µM (inactive) | 10.7 µM (inactive) | 11.2 µM (inactive) |  | 3.35 µM (inactive) | 5.43 µM (inactive) | 9.08 µM (inactive) |
| COc1ccc2c3c1OC1C4(CCC5C(C2)N(CC2CC2)CCC351)OCCO4 (configuration not stated) | > 100 µM (inactive) | > 100 µM (inactive) | > 100 µM (inactive) | > 100 µM (inactive) | > 100 µM (inactive) | > 100 µM (inactive) | > 100 µM (inactive) | > 100 µM (inactive) | > 100 µM (inactive) | > 100 µM (inactive) | > 100 µM (inactive) | > 100 µM (inactive) | > 100 µM (inactive) | > 100 µM (inactive) | > 100 µM (inactive) | > 100 µM (inactive) | > 100 µM (inactive) | > 100 µM (inactive) | > 100 µM (inactive) |  |
| c1cc(CN2CCNCCNCCNCC2)cc(CN2CCNCCNCCNCC2)c1 | > 100 µM (inactive) | > 100 µM (inactive) | > 100 µM (inactive) |  | > 100 µM (inactive) | > 100 µM (inactive) | > 100 µM (inactive) | > 100 µM (inactive) | > 100 µM (inactive) | > 100 µM (inactive) | > 100 µM (inactive) | > 100 µM (inactive) | > 100 µM (inactive) | > 100 µM (inactive) | > 100 µM (inactive) | > 100 µM (inactive) | > 100 µM (inactive) | > 100 µM (inactive) | > 100 µM (inactive) |  |
| CCCCCC(C)(C)CCC(=O)OC1OC(COC2OC(COC3OC(CO)C(O)C(O)C3O)C(O)C(O)C2O)C(O)C(O)C1O (configuration not stated) | > 100 µM (inactive) | > 100 µM (inactive) | > 100 µM (inactive) | > 100 µM (inactive) | > 100 µM (inactive) | > 100 µM (inactive) | > 100 µM (inactive) | > 100 µM (inactive) | > 100 µM (inactive) | > 100 µM (inactive) | > 100 µM (inactive) | > 100 µM (inactive) | > 100 µM (inactive) | > 100 µM (inactive) |  | > 100 µM (inactive) |  | > 100 µM (inactive) | > 100 µM (inactive) | > 100 µM (inactive) |
